In publication PMC9414584, “Synthesis and Biological Evaluation of Indole-2-Carboxamides with Potent Apoptotic Antiproliferative Activity as EGFR/CDK2 Dual Inhibitors” (Pharmaceuticals, 2022):
Several values for one entry are separate records, joined by “and”; a condition that tells them apart may be missing. Equal values may be shown once.

What was measured:
[1] = target: CDK2 enzyme (Homo sapiens, UniProt P24941); experiment: CDK2 inhibitory assay
[2] = system: Caspase-9 in MCF-7 breast cancer cell line; experiment: Caspase-9 level in MCF-7 cells; format: cell-based, human; settings: for Caspase-9 Fold Change: vs control cells
[3] = system: breast cancer cell line (MCF-7); experiment: Antiproliferative MTT assay, MCF-7; format: cell-based; settings: Homo sapiens, MCF7; MCF-7, MTT; read-out: Antiproliferative Activity IC50 ± SEM MCF-7
Source text: (§1) Using the MTT assay with doxorubicin as the reference drug, the antiproliferative activities of 5a–k, 6a–c, and 7 against four human cancer cell lines, including pancreas cancer cell line (Panc-1), breast cancer cell line (MCF-7), colon cancer cell line (HT-29), and epithelial cancer cell line (A-549) were investigated.

[4] = system: Caspase-3 in MCF-7 breast cancer cell line; experiment: Caspase-3 level in MCF-7 cells; settings: for Caspase-3 Fold Change: vs control untreated cells
[5] = system: epithelial cancer cell line (A-549); experiment: Antiproliferative MTT assay, A-549; format: cell-based; settings: Homo sapiens, A549; A-549, MTT; read-out: Antiproliferative Activity IC50 ± SEM A-549
Source text: as §1

[6] = system: Bcl-2 in breast cancer cell line (MCF-7); experiment: Bcl-2 level assay in MCF-7 cells; format: cell-based, human; settings: for Bcl-2 Fold Change: reduced level vs control
[7] = system: Bax in breast cancer cell line (MCF-7); experiment: Bax level assay in MCF-7 cells; format: cell-based, human; settings: for Bax Fold Change: increase over control untreated cells
[8] = Cell viability assay (MTT) on MCF-10A cells; format: cell-based; settings: human, MCF-10A mammary gland epithelial cells
Experimental: The MCF-10A (human mammary gland epithelial) cell line was used in the cell viability experiment. Compounds 5a–k, 6a–c, and 7 were incubated with MCF-10A cells for 4 days at 50 µM concentration, and the viability of cells was determined using the 3-(4,5-dimethylthiazol-2-yl)-2,5-diphenyltetrazolium bromide (MTT) test.. All compounds had no cytotoxic effects, and the vitality of the cells was more than 83% for most of the compounds examined.
The MCF-10A (human mammary gland epithelial) cell line was used in the cell viability experiment. Compounds 5a–k, 6a–c, and 7 were incubated with MCF-10A cells for 4 days at 50 µM concentration, and the viability of cells was determined using the 3-(4,5-dimethylthiazol-2-yl)-2,5-diphenyltetrazolium bromide (MTT) test.

[9] = system: Caspase-8 in MCF-7 breast cancer cell line; experiment: Caspase-8 level in MCF-7 cells; format: cell-based, human; settings: for Caspase-8 Fold Change: vs control cells
[10] = system: four human cancer cell lines (Panc-1, MCF-7, HT-29, A-549); experiment: Antiproliferative MTT assay, average of four cancer cell lines (mean GI50); format: cell-based; settings: Homo sapiens; average of A-549, MCF-7, Panc-1, HT-29; read-out: Antiproliferative Activity IC50 Average (GI50 against the four cell lines)
[11] = system: p53 in MCF-7; experiment: p53 transcription/level in MCF-7; format: cell-based, human; settings: MCF-7 cells
Source text: p53 is a unique protein that participates in several physiological processes such as cell metabolism, stem cell maintenance, and cell adhesion. Because p53 is frequently inactivated in cancer cells, the cells are unable to undergo apoptosis. Similarly, activating, or stabilizing p53 aids cancer cells in normalizing p53-controlled physiological processes and increasing apoptotic activity.

[12] = system: Cytochrome C in MCF-7 human breast cancer cell line; experiment: Cytochrome C assay in MCF-7 cells; format: cell-based; settings: for Cytochrome C Fold Change: vs untreated control cells
Experimental: The quantity of cytochrome C within the cell is important for activating caspases and commencing the intrinsic apoptosis process. […] The findings add to the evidence that apoptosis can be attributed to Cytochrome C overexpression and activation of the intrinsic apoptotic pathway triggered by the investigated compounds.
Indole-2-carboxamide derivatives 5d, 5e, and 5h were evaluated as Cytochrome C activators in the MCF-7 human breast cancer cell line.

[13] = system: pancreas cancer cell line (Panc-1); experiment: Antiproliferative MTT assay, Panc-1; format: cell-based; settings: Homo sapiens; Panc-1, MTT; read-out: Antiproliferative Activity IC50 ± SEM Panc-1
Source text: as §1

[14] = system: colon cancer cell line (HT-29); experiment: Antiproliferative MTT assay, HT-29; format: cell-based; settings: Homo sapiens; HT-29, MTT; read-out: Antiproliferative Activity IC50 ± SEM HT-29
Source text: as §1

[15] = target: EGFR (Homo sapiens, UniProt P00533); experiment: EGFR-TK inhibitory assay; format: biochemical; settings: read-out: EGFR Inhibition IC50 ± SEM
EGFR, sequence (P00533 25-1210): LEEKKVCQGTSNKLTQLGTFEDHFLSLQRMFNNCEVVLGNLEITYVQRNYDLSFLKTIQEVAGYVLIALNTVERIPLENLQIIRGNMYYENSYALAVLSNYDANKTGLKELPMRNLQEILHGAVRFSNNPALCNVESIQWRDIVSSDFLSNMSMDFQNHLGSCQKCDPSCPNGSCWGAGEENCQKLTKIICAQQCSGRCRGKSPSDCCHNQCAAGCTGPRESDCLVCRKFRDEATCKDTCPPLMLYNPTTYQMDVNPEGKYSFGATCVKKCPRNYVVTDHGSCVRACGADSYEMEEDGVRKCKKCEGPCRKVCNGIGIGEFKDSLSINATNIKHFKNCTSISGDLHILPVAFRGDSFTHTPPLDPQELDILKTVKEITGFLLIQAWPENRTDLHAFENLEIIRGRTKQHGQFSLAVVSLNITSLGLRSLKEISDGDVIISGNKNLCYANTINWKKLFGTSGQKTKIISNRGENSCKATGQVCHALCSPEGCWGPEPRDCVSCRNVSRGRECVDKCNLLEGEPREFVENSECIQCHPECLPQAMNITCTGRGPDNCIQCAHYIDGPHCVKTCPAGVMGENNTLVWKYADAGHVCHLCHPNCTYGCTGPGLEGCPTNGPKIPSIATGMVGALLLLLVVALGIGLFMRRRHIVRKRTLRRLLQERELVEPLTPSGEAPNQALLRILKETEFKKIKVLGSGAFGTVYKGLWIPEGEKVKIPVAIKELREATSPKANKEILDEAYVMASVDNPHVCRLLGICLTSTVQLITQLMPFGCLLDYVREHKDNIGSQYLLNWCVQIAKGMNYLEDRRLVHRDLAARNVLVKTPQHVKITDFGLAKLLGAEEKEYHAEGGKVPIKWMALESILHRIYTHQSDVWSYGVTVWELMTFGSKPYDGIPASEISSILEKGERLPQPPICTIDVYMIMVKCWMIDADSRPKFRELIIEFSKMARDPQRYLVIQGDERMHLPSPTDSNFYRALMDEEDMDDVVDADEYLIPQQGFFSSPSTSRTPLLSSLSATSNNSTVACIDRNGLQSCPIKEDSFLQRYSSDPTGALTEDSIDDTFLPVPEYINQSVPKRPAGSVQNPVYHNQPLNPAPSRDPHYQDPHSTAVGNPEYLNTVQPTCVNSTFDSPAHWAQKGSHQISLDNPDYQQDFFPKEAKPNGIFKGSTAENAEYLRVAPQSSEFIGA

[16] = system: A549 lung, MCF-7 breast, Panc-1 Pancreatic, and HT-29 colon cancer cell lines; set-up: method as in PMID 31128433; settings: A549, MCF-7, Panc-1, HT-29; read-out: GI50 against the four examined cell lines (mean GI50); cited from earlier work

Row | SMILES | IC50 [1] [nM] | Caspase-9 Conc [2] [ng/mL] | IC50 [3] [nM] | Caspase-3 Conc [4] [pg/mL] | IC50 [5] [nM] | Bcl-2 Conc [6] [ng/mL] | Bax Conc [7] | viability at 4 days, 50 µM [8] [%] | Caspase-8 Conc [9] [ng/mL] | IC50 [10] [nM] | p53 Conc [11] | Cytochrome C Conc [12] [ng/mL] | IC50 [13] [nM] | IC50 [14] [nM] | Caspase-9 Fold Change [2] [fold] | Caspase-3 Fold Change [4] [fold] | Bcl-2 Fold Change [6] [fold] | Bax Fold Change [7] [fold] | Caspase-8 Fold Change [9] [fold] | Cytochrome C Fold Change [12] [fold] | also measured
1 | Cc1c(C(=O)NCCc2ccc(N3CCOCC3)cc2)[nH]c2ccc(Cl)cc12 [Compound 5d, 5-Chloro-3-methyl-N-(4-morpholinophenethyl)-1H-indole-2-carboxamide] | 23 ± 2 | 16.90 | 900 ± 100 | 570.00 ± 5.00 | 1050 ± 100 | 0.89 | 290 pg/mL and 289.70 ± 2.50 pg/mL | 89 | 1.94 | 1050 | 1375 pg/mL and 1375 ± 15 pg/mL | 0.70 | 1100 ± 100 | 1100 ± 100 |  |  |  |  |  |  | melting point: 210 to 212 °C
2 | Cc1c(C(=O)NCCc2ccc(N3CCCC3C)cc2)[nH]c2ccc(Cl)cc12 (stereo not shown) [Compound 5e, 5-Chloro-3-methyl-N-(4-(2-methylpyrrolidin-1-yl)phenethyl)-1H-indole-2-carboxamide] | 13 ± 1 | 17.25 | 800 ± 50 | 635.50 ± 5.50 | 950 ± 50 | 0.87 | 296.50 pg/mL and 296.50 ± 2.50 pg/mL | 93 | 2.17 | 950 | 1435 pg/mL and 1435 ± 15 pg/mL | 0.80 | 1000 ± 200 | 1100 ± 100 | 18.15 | 9.70 | 5.90 | 36 | 10.90 | 16 | fold more active than dinaciclib on CDK2 ([1]; vs reference dinaciclib): 1.5 fold; IC50 [15]: 93 ± 8 nM
3 | COc1cccc2c1C(=O)c1c(O)c3c(c(O)c1C2=O)C[C@@](O)(C(=O)CO)C[C@@H]3O[C@H]1C[C@H](N)[C@H](O)[C@H](C)O1 [Doxorubicin, reference compound] |  | 16.25 | 900 ± 100 | 503.50 ± 4.50 | 1200 ± 200 | 0.98 | 275.80 ± 2.50 pg/mL |  | 1.80 | 1100 | 1265 ± 10 pg/mL | 0.60 | 1400 ± 200 | 1000 ± 100 | 17.00 | 7.70 | 5.20 | 33 | 9.00 | 12 | GI50 [16]: 1130 nM; p53 Fold Change ([11]; vs control): 25 fold; p53 Conc ([11]; listed as doxorubicin): 1265 pg/mL
